Test results: patent publication US20060088899A1, “Combination chemotherapy with chlorotoxin” (priority 2002, published 2006)
Where two headings read alike, the source gives them in different places. Ends that are not written are not given here. * marks the point of attachment. Biotin = O=C1N[C@H]2[C@H](CS[C@H]2CCCCC(=O)*)N1

Legend:
[1] = test system: D54-MG; test: Chemotherapeutic agent cytotoxicity, CCK-8 assay; type: cell-based, Human; details: two to five days treatment
Method: (§1) A tissue culture method was optimized to test the effects of various chemotherapeutic agents on multiple cancer cell lines (see Table 1). Cells were plated on 96-well microtiter tissue culture plates at a density of approximately 1000-2000 cells per well, depending on the specific cell line. Cells were allowed to adhere twenty-four hours in a 37° C., humidified cell culture incubator supplied with five percent carbon dioxide. In order to achieve a dose-response curve for each drug in each cell line, cells were treated with decreasing concentrations of a specific cytotoxic compound for two to five days. Following treatment, the cytotoxic effect of the drug was quantified using the Cell Counting Kit-8 (CCK-8) (Dojindo Inc.) according to the manufacturer's instructions. In brief, following the treatment period with the cytotoxic drug, cells were incubated with CCK-8 reagent and incubated at 37° C. for one to four hours, depending on the specific cell type. After incubation, plates were read on a microplate reader at a wavelength of 490 nm. The IC50 of each drug was calculated from a X-Y scatter plot of the negative log concentration of drug versus mean optical density (Table 2).

[2] = test system: SKMEL28; test: Chemotherapeutic agent cytotoxicity, CCK-8 assay; type: cell-based, Human; details: two to five days treatment
Method: as §1

[3] = test system: U251; test: Chemotherapeutic agent cytotoxicity, CCK-8 assay; type: cell-based; details: Homo sapiens, U-251, 120 h, two to five days treatment
Method: as §1

[4] = test system: SKMEL31; test: Chemotherapeutic agent cytotoxicity, CCK-8 assay; type: cell-based; details: Homo sapiens, 120 h, two to five days treatment
Method: as §1

[5] = test system: PC-3; test: Chemotherapeutic agent cytotoxicity, CCK-8 assay; type: cell-based; details: Homo sapiens, 120 h, two to five days treatment
Method: as §1

[6] = test system: U251 glioma flank tumors; test: Temodar plus chlorotoxin in glioma flank tumor model; type: in vivo, Nude mice; details: i.p., temodar 13.2 mg/kg, chlorotoxin 0.080 mg/kg
Method: The purpose of this study was to determine whether hydroxyurea or temodar combined with chlorotoxin were sufficient to inhibit tumor growth as indicated from in vitro studies with glioma cell lines. […] Combination treatment with chlorotoxin with hydroxyurea or temodar in mice with glioma flank tumors was compared to the treatment group of hydroxyurea or temodar alone and saline alone. Hydroxyurea and temodar dosage was based on the lowest dosage (10 mg/kg body weight) used in previous studies to determine clearance from the body in the treatment of sickle cell disease paradigm in nude mice (Iyamu et al. (2001) Chemotherapy 47, 270-278). […]
Mice with established flank tumors were each treated with 0.100 ml injection (i.p) of sterilized solutions consisting of either of saline, saline and hydroxyurea or temodar (13.2 mg/kg body weight), or saline, hydroxyurea or temodar (13.2 mg/kg) and chlorotoxin (0.080 mg/kg body weight). Tumor volume was calculated based on the measurements with the same set of calipers on the indicated days by determining the length×width×height of the tumor of non-anesthetized mice. […] Statistical significance was determined according to a one-way ANOVA test.

[7] = test system: U251 and PC3 cells; details: alanine-substituted 9-mers versus native 9-mer
[8] = test system: crayfish; test: Crayfish paralysis assay; type: in vivo; details: 10-mer peptides
[9] = test system: PC3 human prostate cancer cells; type: binding
Text: In order to compare binding of the short scorpion toxins, the regions homologous to peptide 21 of small toxin and probable toxin LQH-8/6 were synthesized and biotinylated for analysis in the chlorotoxin binding assay (see Table 8 for amino acid sequences of the peptides).

[10] = test system: D54MG Glioblastoma cells; details: for ^3H-Thymidine uptake ± SD (CPM): 24 hours incubation
Method: The purpose of this experiment was to determine if the proliferation D54MG Glioblastoma cells, as measured by ^3H-thymidine uptake, is effected by Peptide 21, a segment of the full chlorotoxin sequence. The sequence of peptide 21 and its relation to chlorotoxin is shown in the sequence below:
D54MG cells were plated in a 24 well plate at 100,000 cells/ml/well using five rows of four wells for each concentration. The cells were allowed to adhere in normal media for twenty-four hours at 37° C. and 5% carbon dioxide. TM-701 was diluted to a […] stock solution and added to each row at the concentrations of 0, 20, 80, 160 and 320 nM.
The cells and peptide 21 were allowed to incubate for 24 hours at 37° C. and 5% carbon dioxide. After twenty-four hours, the cells were rinsed two times with warm PBS. Normal media was added back to the cells at 1 ml/well. One μCi of ^3H-thymidine was added to each well (1 μl of 1 mCi/ml ^3H-thymidine to each well). The plate was incubated for two hours at 37° C. The media and thymidine were removed and the wells were rinsed with ice-cold phosphate-buffered saline three times. To each well was added 1 ml of 0.3 N NaOH. The plate was incubated in the 37° C. incubator for thirty minutes. Each well of 0.3 N NaOH was pipetted up and down three to four times and removed from the plate and the solution was placed in scintillation vials for counting. Scintillation fluid at four times the amount of sample was added to the vials (4 ml). Each vial was counted on the scintillation counter for one minute.

[11] = Homo sapiens, D54MG, 120 h, read-out: IC50
[12] = Homo sapiens, SK-MEL-28, 120 h, read-out: IC50
[13] = PC3 cells, biotinylated peptides

With `O=c1[nH]cc(F)c(=O)[nH]1` [5-Fluorouracil, fluorouracil] the IC50 [1, 11] was 1.5 µg/mL.

With `N.N.[Cl][Pt][Cl]` [Cisplatin, cis-diamminedichloroplatinum] the IC50 [1] was 10 µg/mL and the IC50 [2] was 8 µg/mL.

For `COc1cccc2c1C(=O)c1c(O)c3c(c(O)c1C2=O)C[C@@](O)(C(=O)CO)C[C@@H]3O[C@H]1C[C@H](N)[C@H](O)[C@H](C)O1` [Doxorubicin, hydroxyl daunorubicin], the IC50 [3] was 0.03 µg/mL, the IC50 [4] was 0.035 µg/mL and the IC50 [1, 11] was 0.06 µg/mL. It also gave an IC50 [2, 12] of 0.04 µg/mL.

`NC(=O)NO` [Hydroxyurea, hyroxycarbamide] gave an IC50 [5] of 35000 µM.

For `CC(=O)O[C@H]1C(=O)[C@@]2(C)[C@H]([C@H](OC(=O)c3ccccc3)[C@]3(O)C[C@H](OC(=O)[C@H](O)[C@@H](NC(=O)c4ccccc4)c4ccccc4)C(C)=C1C3(C)C)[C@]1(OC(C)=O)CO[C@@H]1C[C@@H]2O` [Paclitaxel, paclitaxel], the IC50 [3] was 0.008 µM, the IC50 [4] was 0.025 µM and the IC50 [1, 11] was 0.0105 µM.

`Cn1nnc2c(C(N)=O)ncn2c1=O` [Temodar, temozomide] was tested, and the “growth of the xenografted tumor (percent change of tumor volume)” value [6] was “little effect”, the IC50 [3] was 150 µM and the IC50 [4] was 150 µM. For the same compound, the IC50 [1, 11] was 120 µM and the IC50 [2, 12] was 30 µM.

In the case of Biotin-TDHAMARKS [Peptide 21a-A4], the “binding of the peptide to cells” value [7] is reported as “may be equal to or greater than chlorotoxin itself”.

With Biotin-TTDHQMARKS [peptide 21] the paralysis of crayfish [8] was “effective”, the binding [9] was 232.50 % of background levels and the “uptake of ^3H-thymidine, dose dependence” value ([10]; 0 to 320 nM) was “decreases in a does-dependent manner”. For the same compound, the “^3H-Thymidine uptake ± SD (CPM)” value ([10]; 20 nM) was 7795 ± 634 CPM, the “^3H-Thymidine uptake ± SD (CPM)” value ([10]; 80 nM) was 7412 ± 630 CPM and the “^3H-Thymidine uptake ± SD (CPM)” value ([10]; 160 nM) was 6983 ± 329 CPM. The “^3H-Thymidine uptake ± SD (CPM)” value ([10]; 320 nM) was 5782 ± 886 CPM.

For “TTDPQMSKK [Peptide 21ST, biotinylated region of small toxin homologous to peptide 21]”, the binding [9, 13] was 225.26 % of background levels.

For “TTDQQMTKK [Peptide 21LQ, biotinylated region of probable toxin LQH-8/6 homologous to peptide 21]”, the binding [9, 13] was 242.32 % of background levels.

With “negative peptide (GKCYGPQCLC; Chlorotoxin; listed as Leiurus quinquestriatus)” the binding [9, 13] was 110 % of background levels.
